This is an account of results in patent US20220142977A1, “METHODS OF TREATING CONDITIONS RELATED TO THE S1P1 RECEPTOR” (ARENA PHARMACEUTICALS, INC., priority 2019, published 2022).

Counter-ions that a name gives are not always drawn. A value given as a limit tells only on which side of the number the result lay.

Series [1] relates to patients with moderate to severe ulcerative colitis. The experiment in a line: Randomized, double-blind, placebo-controlled dose-ranging study in ulcerative colitis: efficacy (Mayo scores, endoscopic improvement, remission). Type of series: in vivo, human. As to conditions: for improvement in 2-component Mayo Score (0 to 6) relative to placebo / improvement in Total Mayo Score (0 to 12) relative to placebo: Week 12. As to the method: A randomized, double-blind, placebo-controlled, parallel-group, dose-ranging study to assess safety and efficacy of two orally administered doses (1 mg and 2 mg) of Compound 1 in patients with ulcerative colitis was conducted. The table below provides a summary of demographic data by treatment group.
Patients were randomized into a double-blind, placebo-controlled study to receive once daily (q.d.) doses of the L-arginine salt of Compound 1 (1 mg or 2 mg) or matching placebo in a 1:1:1 ratio for 12 weeks. The trial enrolled 156 patients with moderate to severe ulcerative colitis (3-component Mayo score of 4-9 that includes endoscopic subscore ≥2, rectal bleeding score ≥1).
The treatment formulation was composed of immediate-release, hard gelatin capsules containing L-arginine salt of Compound 1. The placebo was composed of hard gelatin capsules containing microcrystalline cellulose.
Patients were instructed to take their capsule on an empty stomach (overnight fast of approximately 8 hours) and to avoid eating for approximately 1 hour after dosing.
The primary objective of this proof-of-concept study was to determine the effect of treatment with the L-arginine salt of Compound 1 in changing 3-component Mayo Clinic score (score ranging from 0 to 9, including stool frequency, rectal bleeding and findings on endoscopy) at 12 weeks.
Secondary endpoints were the proportion of patients who achieve endoscopic improvement at Week 12; change in 2-component Mayo Score (score ranging from 0 to 6, including rectal bleeding and findings on endoscopy) at Week 12; and change in Total Mayo Score (score ranging from 0 to 12, including stool frequency, rectal bleeding, findings on endoscopy, and physician global assessment) at Week 12.
Exploratory endpoints included change from baseline in lymphocyte counts at Weeks 1, 2, 4, 8, and 12; proportion of patients achieving clinical remission at Week 12; and proportion of patients who achieve clinical response at Week 12.
ANCOVA model, adjusted for current oral corticosteroid use, prior exposure to TNF-alpha antagonists, and baseline value, was used to estimate changes in Mayo Clinic Score. Mantel-Haenszel method (estimated treatment difference by adjusting current oral corticosteroid use and prior exposure to TNF-alpha antagonists) used to estimate proportion difference for dichotomous parameters. Missing individual Mayo subscores impacting efficacy measures were imputed using multiple imputation methodology with observed case analysis for sensitivity. Statistical testing was pre-specified as one-sided with p<0.025 reflecting conventional statistical significance. Hierarchical closed testing procedure for primary and secondary endpoints at 0.05 alpha level was used.

For series [2] the test system is unchanged. The series is described as follows: Same study: safety and tolerability (TEAEs, heart rate, AV conduction, LFTs, infections). Format: in vivo, human.

Take `O=C(O)C[C@H]1CCc2c1[nH]c1ccc(OCc3ccc(C4CCCC4)c(C(F)(F)F)c3)cc21` [Compound 1, (R)-2-(7-(4-cyclopentyl-3-(trifluoromethyl)benzyloxy)-1,2,3,4-tetrahydrocyclopenta[b]indol-3-yl)acetic acid]: in series [1] (subgroups, 2 mg, week 12 (FIGS. 3A-3D)), the “improvement in individuals with prior vedolizumab use or a history of pancolitis (subgroup analyses)” value was “improvement is not seen”.
As for `O=C(O)C[C@H]1CCc2c1[nH]c1ccc(OCc3ccc(C4CCCC4)c(C(F)(F)F)c3)cc21` [L-arginine salt of Compound 1], in series [1] (1 mg q.d. oral, week 12, p=0.146, not significant), the “improvement in 3-component Partial Mayo Score (0 to 9) relative to placebo” value amounted to 0.43. Further, the “improvement in 2-component Mayo Score (0 to 6) relative to placebo” value in series [1] (1 mg, p=0.086, not significant) is 0.39. Also, the “improvement in Total Mayo Score (0 to 12) relative to placebo” value in series [1] (1 mg, p=0.128, not significant) was 0.60. Moreover, the “improvement in 3-component Partial Mayo Score (0 to 9) relative to placebo” value in series [1] (2 mg q.d. oral, week 12, p=0.009) was 0.99. In series [1] (2 mg, p=0.010), the “improvement in Total Mayo Score (0 to 12) relative to placebo” value is 1.27. Besides, in series [1] (dose not printed (2 mg implied), p=0.002), the “improvement in 2-component Mayo Score (0 to 6) relative to placebo” value came out at 0.84. Further, in series [1] (high dose (2 mg), week 12), the “primary and all secondary endpoints” value was “achieved the primary and all secondary endpoints with statistical significance”. Besides, the “serious adverse events (SAEs), % of patients” value in series [2] (2 mg, placebo 11.1%) is on record as 0%. Also, in series [2] (Day 1, both 1 mg and 2 mg groups), the “heart rate on hourly ECGs (in words)” value was “mild decrease”. The “mean change in heart rate on hourly ECGs” value in series [2] (Day 1, either group (1 mg, 2 mg), any timepoint) was less than 10 bpm. The “severity of adverse events in infections and infestations” value in series [2] (assessed by investigators, majority upper respiratory tract infections) is “mild or moderate”. Also, in series [2] (in vivo), the “increases in liver function tests (LFTs) compared to placebo” value was “no increases”, the “reports of macular edema” value is recorded as “no reports”, the “reports of pulmonary function test abnormalities” value is recorded as “no reports” and the “serious adverse events related to heart rate changes or AV block” value was “No serious adverse events”. For the same compound, in series [2] (throughout the study), the “discontinuations from study related to bradycardia or AV block” value is reported as “no discontinuations”; the “impact on heart rate and AV conduction” value is “low”.
